Source: the NIST ThermoML archive (doi:10.1016/j.jct.2017.05.020)

Legend:
[1] = refractive index (Na D-line) (dimensionless); wn = mass fraction of the nth substance listed; settings: 100 kPa, Liquid, Standard Abbe refractometry
[2] = wn = mass fraction of the nth substance listed; settings: 100 kPa, Liquid, Vibrating tube method
[3] = 100 kPa, Liquid, Vibrating tube method
[4] = refractive index (Na D-line) (dimensionless); settings: 100 kPa, Liquid, Standard Abbe refractometry

C=CC[P+](c1ccccc1)(c1ccccc1)c1ccccc1.[Br-] [allyltriphenylphosphonium bromide] + OCCOCCO
Settings | mass density, w1 = 0.1842 [kg/m3] | mass density, w1 = 0.2653 [kg/m3] | mass density, w1 = 0.4745 [kg/m3] | refractive index, w1 = 0.1842 | refractive index, w1 = 0.2653 | refractive index, w1 = 0.4745
[1], 293.15 K | – | – | – | 1.4817 | 1.4955 | 1.5446
[1], 298.15 K | – | – | – | 1.4801 | 1.4938 | 1.543
[1], 303.15 K | – | – | – | 1.4784 | 1.4921 | 1.5413
[1], 308.15 K | – | – | – | 1.4768 | 1.4904 | 1.5396
[1], 313.15 K | – | – | – | 1.4752 | 1.4887 | 1.538
[1], 318.15 K | – | – | – | 1.4735 | 1.487 | 1.5363
[1], 323.15 K | – | – | – | 1.4718 | 1.4853 | 1.5346
[1], 328.15 K | – | – | – | 1.4701 | 1.4836 | 1.5329
[1], 333.15 K | – | – | – | 1.4684 | 1.4819 | 1.5313
[1], 338.15 K | – | – | – | 1.4668 | 1.4802 | 1.5296
[1], 343.15 K | – | – | – | 1.4651 | 1.4785 | 1.5279
[2], 293.15 K | 1146.3 | 1159.9 | 1201.1 | – | – | –
[2], 298.15 K | 1142.7 | 1156.3 | 1197.5 | – | – | –
[2], 303.15 K | 1139.1 | 1152.6 | 1193.8 | – | – | –
[2], 308.15 K | 1135.5 | 1149 | 1190.1 | – | – | –
[2], 313.15 K | 1131.9 | 1145.3 | 1186.4 | – | – | –
[2], 318.15 K | 1128.2 | 1141.7 | 1182.7 | – | – | –
[2], 323.15 K | 1124.6 | 1138 | 1179 | – | – | –
[2], 328.15 K | 1121 | 1134.4 | 1175.4 | – | – | –
[2], 333.15 K | 1117.3 | 1130.7 | 1171.7 | – | – | –
[2], 338.15 K | 1113.6 | 1127 | 1167.9 | – | – | –
[2], 343.15 K | 1109.9 | 1123.3 | 1164.2 | – | – | –

C=CC[P+](c1ccccc1)(c1ccccc1)c1ccccc1.[Br-] [allyltriphenylphosphonium bromide] + OCCOCCOCCO
Settings | mass density, w1 = 0.1375 [kg/m3] | mass density, w1 = 0.2033 [kg/m3] | mass density, w1 = 0.3895 [kg/m3] | refractive index, w1 = 0.1375 | refractive index, w1 = 0.2033 | refractive index, w1 = 0.3895
[1], 293.15 K | – | – | – | 1.4803 | 1.4945 | 1.5314
[1], 298.15 K | – | – | – | 1.4786 | 1.4927 | 1.5297
[1], 303.15 K | – | – | – | 1.4769 | 1.4909 | 1.528
[1], 308.15 K | – | – | – | 1.4752 | 1.4892 | 1.5263
[1], 313.15 K | – | – | – | 1.4735 | 1.4874 | 1.5245
[1], 318.15 K | – | – | – | 1.4717 | 1.4857 | 1.5228
[1], 323.15 K | – | – | – | 1.47 | 1.4839 | 1.5211
[1], 328.15 K | – | – | – | 1.4683 | 1.4822 | 1.5193
[1], 333.15 K | – | – | – | 1.4666 | 1.4804 | 1.5176
[1], 338.15 K | – | – | – | 1.4649 | 1.4787 | 1.5158
[1], 343.15 K | – | – | – | 1.4632 | 1.4769 | 1.5141
[2], 293.15 K | 1146.2 | 1159.2 | 1190.8 | – | – | –
[2], 298.15 K | 1142.5 | 1155.5 | 1187.1 | – | – | –
[2], 303.15 K | 1138.8 | 1151.7 | 1183.4 | – | – | –
[2], 308.15 K | 1135 | 1148 | 1179.7 | – | – | –
[2], 313.15 K | 1131.3 | 1144.2 | 1176.1 | – | – | –
[2], 318.15 K | 1127.5 | 1140.5 | 1172.4 | – | – | –
[2], 323.15 K | 1123.7 | 1136.7 | 1168.7 | – | – | –
[2], 328.15 K | 1119.9 | 1133 | 1165 | – | – | –
[2], 333.15 K | 1116.1 | 1129.2 | 1161.3 | – | – | –
[2], 338.15 K | 1112.2 | 1125.5 | 1157.6 | – | – | –
[2], 343.15 K | 1108.4 | 1121.7 | 1153.9 | – | – | –

OCCOCCO [diethylene glycol]
Settings | mass density, [3] [kg/m3] | refractive index, [4]
293.15 K | 1116.5 | 1.4477
298.15 K | 1113 | 1.4461
303.15 K | 1109.4 | 1.4446
308.15 K | 1105.8 | 1.443
313.15 K | 1102.2 | 1.4415
318.15 K | 1098.6 | 1.44
323.15 K | 1095 | 1.4384
328.15 K | 1091.4 | 1.4368
333.15 K | 1087.7 | 1.4351
338.15 K | 1084 | 1.4334
343.15 K | 1080.3 | 1.4317

OCCOCCO [diethylene glycol] + C=CC[P+](c1ccccc1)(c1ccccc1)c1ccccc1.[Br-]
w2 = 0
Settings | mass density, [2] [kg/m3] | refractive index, [1]
293.15 K | 1116.5 | 1.4477
298.15 K | 1113 | 1.4461
303.15 K | 1109.4 | 1.4446
308.15 K | 1105.8 | 1.443
313.15 K | 1102.2 | 1.4415
318.15 K | 1098.6 | 1.44
323.15 K | 1095 | 1.4384
328.15 K | 1091.4 | 1.4368
333.15 K | 1087.7 | 1.4351
338.15 K | 1084 | 1.4334
343.15 K | 1080.3 | 1.4317

OCCOCCOCCO [triethylene glycol]
Settings | mass density, [3] [kg/m3] | refractive index, [4]
293.15 K | 1124.6 | 1.4576
298.15 K | 1120.8 | 1.4558
303.15 K | 1116.9 | 1.4541
308.15 K | 1113 | 1.4523
313.15 K | 1109.1 | 1.4505
318.15 K | 1105.2 | 1.4488
323.15 K | 1101.3 | 1.4469
328.15 K | 1097.4 | 1.445
333.15 K | 1093.5 | 1.4434
338.15 K | 1089.6 | 1.4417
343.15 K | 1085.6 | 1.4399

OCCOCCOCCO [triethylene glycol] + C=CC[P+](c1ccccc1)(c1ccccc1)c1ccccc1.[Br-]
w2 = 0
Settings | mass density, [2] [kg/m3] | refractive index, [1]
293.15 K | 1124.6 | 1.4576
298.15 K | 1120.8 | 1.4558
303.15 K | 1116.9 | 1.4541
308.15 K | 1113 | 1.4523
313.15 K | 1109.1 | 1.4505
318.15 K | 1105.2 | 1.4488
323.15 K | 1101.3 | 1.4469
328.15 K | 1097.4 | 1.445
333.15 K | 1093.5 | 1.4434
338.15 K | 1089.6 | 1.4417
343.15 K | 1085.6 | 1.4399
